Data on 4 molecules can be found in patent US12692238B2, “Substituted pyridazinone herbicides” (FMC CORPORATION, priority 2020, dated 2026).

Like-named read-outs stand apart in the source and are kept apart here.

Common to all, as to type: in vivo
For experiment [1], the system named is barnyardgrass (Echinochloa crus-galli). The experiment in a line: Test A postemergence, barnyardgrass. The following applies: Postemergence, 0 to 100 scale, 10 days. In short, it runs like this: (§1)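 Test chemicals, formulated in a non-phytotoxic solvent mixture with surfactant, are applied either as a directed preemergence soil spray or postemergence to seedlings at the one- to two-leaf stage. Injury is scored visually after 10 days, 0 = no effect to 100 = complete control.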

The subject of experiment [2] is ryegrass, Italian (Italian ryegrass, Lolium multiflorum). The experiment in a line: Test A preemergence, ryegrass, Italian. The following applies: Lolium multiflorum, pre-emergence, 240 h, 0 to 100 scale, 10 days, read-out: Plant response rating, Ryegrass, Italian; for pest or weed control at 31 g/ha: 31 g ai/ha; for pest or weed control at 125 g/ha: 125 g ai/ha. In short, it runs like this:
as §1

Experiment [3] deals with ragweed (common ragweed, Ambrosia artemisiifolia). Put plainly: Test A postemergence, ragweed. The following applies: Ambrosia artemisiifolia, post-emergence, 240 h, 10 days, read-out: Plant response rating, Ragweed; for pest or weed control at 31 g/ha: 31 g ai/ha, postemergence, 0 to 100 scale (0 no effect, 100 complete control); for pest or weed control at 125 g/ha: Postemergence, 125 g ai/ha, 0 to 100 scale. The method in brief: as §1

The test system of experiment [4] is ducksalad (Heteranthera limosa). The experiment in a line: Test B flooded paddy test, ducksalad. To be noted: Heteranthera limosa; 250 g ai/ha, Flood; visually evaluated after 10 to 14 days; read-out: Plant response rating, Ducksalad (0 to 100 scale where 0 is no effect and 100 is complete control). The method in brief:
(§2)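 Plants grown to 2-leaf stage; pots flooded 3 cm above soil and compound applied directly into paddy water, depth maintained throughout. After 10 to 14 days in greenhouse, visual rating versus controls on 0–100 scale (0 no effect, 100 complete control).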

The subject of experiment [5] is blackgrass (Alopecurus myosuroides). Put plainly: Test A postemergence, blackgrass. The following applies: Alopecurus myosuroides, post-emergence, 240 h, 10 days, read-out: Plant response rating, Blackgrass; for pest or weed control at 31 g/ha: 31 g ai/ha; for pest or weed control at 125 g/ha: 125 g ai/ha. In short, it runs like this: as §1
In experiment [6] the test system is galium (catchweed bedstraw, Galium aparine). Put plainly: Test A postemergence, galium. To be noted: Galium, post-emergence, 240 h, 10 days, read-out: Plant response rating, Galium; for pest or weed control at 31 g/ha: 31 g ai/ha, postemergence, 0 to 100 scale (0 no effect, 100 complete control); for pest or weed control at 125 g/ha: Postemergence, 125 g ai/ha, 0 to 100 scale. In short, it runs like this: as §1

Experiment [7] has as its system redroot pigweed (Amaranthus retroflexus). Put plainly: Test A postemergence, redroot pigweed. The following applies: 10 days. The method in brief:
as §1

Experiment [8] has as its system barnyardgrass (Echinochloa crus-galli). Put plainly: Test A preemergence, barnyardgrass. To be noted: 10 days. The method in brief: as §1
The next experiment relates to rice (Oryza sativa). Put plainly: Test B flooded paddy test, rice. The following applies: Oryza sativa; 250 g ai/ha, Flood; visually evaluated after 10 to 14 days; read-out: Plant response rating, Rice (0 to 100 scale where 0 is no effect and 100 is complete control). The method in brief: as §2
Experiment [9] has as its system ragweed (common ragweed, Ambrosia artemisiifolia). The experiment in a line: Test A preemergence, ragweed. To be noted: Ambrosia artemisiifolia, pre-emergence, 240 h, 0 to 100 scale, 10 days, read-out: Plant response rating, Ragweed; for pest or weed control at 31 g/ha: 31 g ai/ha; for pest or weed control at 125 g/ha: 125 g ai/ha. The method in brief: as §1
Experiment [10] concerns redroot pigweed (Amaranthus retroflexus). The experiment in a line: Test A preemergence, redroot pigweed. The following applies: 0 to 100 scale, 10 days. The method in brief:
as §1

Experiment [11] relates to sedge, umbrella (small-flower umbrella sedge, Cyperus difformis). Put plainly: Test B flooded paddy test, sedge, umbrella. To be noted: Cyperus difformis; 250 g ai/ha, Flood; visually evaluated after 10 to 14 days; read-out: Plant response rating, Sedge, Umbrella (0 to 100 scale where 0 is no effect and 100 is complete control). In short, it runs like this:
as §2

Experiment [12] concerns barnyardgrass (Echinochloa crus-galli). The experiment in a line: Test B flooded paddy test, barnyardgrass. To be noted: Echinochloa crus-galli; 250 g ai/ha, Flood; visually evaluated after 10 to 14 days; read-out: Plant response rating, Barnyardgrass (0 to 100 scale where 0 is no effect and 100 is complete control). In short, it runs like this:
as §2

Experiment [13] has as its system ryegrass, Italian (Italian ryegrass, Lolium multiflorum). The experiment in a line: Test A postemergence, ryegrass, Italian. To be noted: Lolium multiflorum, post-emergence, 240 h, 10 days, read-out: Plant response rating, Ryegrass, Italian; for pest or weed control at 31 g/ha: 31 g ai/ha, postemergence, 0 to 100 scale (0 no effect, 100 complete control); for pest or weed control at 125 g/ha: Postemergence, 125 g ai/ha, 0 to 100 scale. In short, it runs like this: as §1

Experiment [14] deals with foxtail, giant (giant foxtail, Setaria faberi). Put plainly: Test A preemergence, foxtail, giant. The following applies: Setaria faberi, pre-emergence, 240 h, 0 to 100 scale, 10 days, read-out: Plant response rating, Foxtail, Giant; for pest or weed control at 31 g/ha: 31 g ai/ha; for pest or weed control at 125 g/ha: 125 g ai/ha. In short, it runs like this:
as §1

Experiment [15] shares this test system. The experiment in a line: Test A postemergence, foxtail, giant. To be noted: Setaria faberi, post-emergence, 240 h, 10 days, read-out: Plant response rating, Foxtail, Giant; for pest or weed control at 31 g/ha: 31 g ai/ha; for pest or weed control at 125 g/ha: 125 g ai/ha. The method in brief: as §1
[16] abbreviates: postemergence, 0 to 100 scale (0 no effect, 100 complete control).

As for `CC(=O)OCOc1c(Cl)nn(C)c(=O)c1-c1c(C)sc2cccc(Cl)c12` [Compound 1, 5-[(acetyloxy)methoxy]-6-chloro-4-(4-chloro-2-methylbenzo[b]thien-3-yl)-2-methyl-3(2H)-pyridazinone], the “Plant response rating, Barnyardgrass” value in experiment [1] (31 g ai/ha) worked out at 0; in experiment [1] (125 g ai/ha), 40; in [8] (31 g ai/ha, 0 to 100 scale), 0; in experiment [8] (125 g ai/ha, 0 to 100 scale (0 no effect, 100 complete control)), 0. The pest or weed control at 31 g/ha in [2] came to 0%; in experiment [3] it was 70%; in experiment [5] (Postemergence, 0 to 100 scale) it was 0%; in experiment [6] it was 70%; in experiment [9], 10%; in experiment [13], 10%. In addition, the pest or weed control at 125 g/ha in [2] came to 10%; in experiment [3], 90%; in experiment [5] (Postemergence, 0 to 100 scale), 0%; in experiment [6] it was 90%; in [9], 20%; in [13] it was 30%. Also, the pest or weed control at 250 g/ha in [4], in [11] and in experiment [12] was 0% throughout. Besides, the “Plant response rating, Pigweed, Redroot” value in [7] (31 g ai/ha, postemergence, 0 to 100 scale (0 no effect, 100 complete control)) came to 80; in experiment [7] (Postemergence, 125 g ai/ha, 0 to 100 scale), 90; in experiment [10] (31 g ai/ha), 80; in experiment [10] (125 g ai/ha), 90. In addition, the plant injury at 250 g/ha with rice (Oryza sativa) is 10%.
Consider `COC(=O)OCOc1c(Cl)nn(C)c(=O)c1-c1c2cc(C)ccc2cc2ccc(C)cc12` [Compound 8, [[3-chloro-5-(2,7-dimethyl-9-anthracenyl)-1,6-dihydro-1-methyl-6-oxo-4-pyridazinyl]oxy]methyl methyl carbonate], for which the pest or weed control at 31 g/ha in experiment [2] was determined as 0%; in experiment [3] it was 100%; in experiment [5] (Postemergence, 0 to 100 scale) it was 0%; in experiment [6], 100%; in experiment [14], 30%; in [15] (Postemergence, 0 to 100 scale), 10%. Also, the pest or weed control at 31 g/ha stood at 40% in experiment [9] and 10% in experiment [13]. Moreover, the pest or weed control at 125 g/ha turned out to be 10% in experiment [2]; 100% in experiment [3]; 0% in experiment [5] (Postemergence, 0 to 100 scale); 100% in [6]; 70% in experiment [14]; 70% in experiment [15] (Postemergence, 0 to 100 scale). The pest or weed control at 125 g/ha turned out to be 100% in [9] and 10% in experiment [13]. Further, the pest or weed control at 250 g/ha is 95% in experiment [4], 95% in experiment [11] and 90% in experiment [12]. For the same molecule, the plant injury at 250 g/ha in the experiment on rice (Oryza sativa) worked out at 0%.
With `Cc1ccc2cc3ccc(C)cc3c(-c3c(OCOC(=O)C(C)(C)C)c(Cl)nn(C)c3=O)c2c1` [Compound 9, [[3-chloro-5-(2,7-dimethyl-9-anthracenyl)-1,6-dihydro-1-methyl-6-oxo-4-pyridazinyl]oxy]methyl 2,2-dimethylpropanoate], the pest or weed control at 31 g/ha in experiment [2] came out at 0%; in [3], 80%; in experiment [5] (Postemergence, 0 to 100 scale) it was 0%; in [6], 70%; in experiment [14], 0%; in experiment [15] (Postemergence, 0 to 100 scale), 20%. Further, the pest or weed control at 31 g/ha in experiment [9] and in [13] was 0% throughout. For the same molecule, the pest or weed control at 125 g/ha in experiment [2] came out at 0%; in [3] it was 100%; in experiment [5] (Postemergence, 0 to 100 scale) it was 0%; in experiment [6], 100%; in experiment [14], 50%; in experiment [15] (Postemergence, 0 to 100 scale), 40%. For the same molecule, the pest or weed control at 125 g/ha amounted to 60% in experiment [9] and 10% in experiment [13]. Moreover, the pest or weed control at 250 g/ha in experiment [4] turned out to be 100%; in [11], 100%; in [12], 98%. In addition, the plant injury at 250 g/ha in the experiment with rice (Oryza sativa) is 0%.
In the case of `COC(=O)OCOc1c(C)nn(C)c(=O)c1-c1c2cc(C)ccc2cc2ccc(F)cc12` [Compound 15, [[5-(2-fluoro-7-methyl-9-anthracenyl)-1,6-dihydro-1,3-dimethyl-6-oxo-4-pyridazinyl]oxy]methyl methyl carbonate], the pest or weed control at 31 g/ha turned out to be 50% in [2]; 100% in experiment [3]; 0% in experiment [5] (setting [16]); 100% in [6]; 100% in experiment [14]; 100% in experiment [15] (setting [16]). In addition, the pest or weed control at 31 g/ha in experiment [9] and in [13] was 100% in each case. Further, the pest or weed control at 125 g/ha in experiment [2] was determined as 100%; in experiment [3], 100%; in experiment [5] (Postemergence, 0 to 100 scale), 10%; in experiment [6], 100%; in experiment [14] it was 100%; in experiment [15] (Postemergence, 0 to 100 scale) it was 100%. For the same molecule, the pest or weed control at 125 g/ha in [9] and in experiment [13] was 100% throughout. Besides, the pest or weed control at 250 g/ha amounted to 95% in experiment [4], 90% in experiment [11] and 50% in experiment [12]. Besides, the plant injury at 250 g/ha with rice (Oryza sativa) is 65%.
